Measured values: patent publication US20250222120A1, “SYNTHESIS OF NOVEL SMALL MOLECULE CARM1 DEGRADERS, COMPOUNDS FORMED THEREBY, AND PHARMACEUTICAL COMPOSITIONS CONTAINING THEM” (Wisconsin Alumni Research Foundation, priority 2024, published 2025)

How the values were obtained:
[1] = molecular target: T1, CARM1 (Homo sapiens, UniProt Q86X55); test: CARM1 degradation by western blot in MCF7 cells; format: cell-based; set-up: Cell lysates were collected and the CARM1 levels were detected by western blots; endogenous in cells; host or cells: MCF7
T1 sequence (Q86X55 1-608): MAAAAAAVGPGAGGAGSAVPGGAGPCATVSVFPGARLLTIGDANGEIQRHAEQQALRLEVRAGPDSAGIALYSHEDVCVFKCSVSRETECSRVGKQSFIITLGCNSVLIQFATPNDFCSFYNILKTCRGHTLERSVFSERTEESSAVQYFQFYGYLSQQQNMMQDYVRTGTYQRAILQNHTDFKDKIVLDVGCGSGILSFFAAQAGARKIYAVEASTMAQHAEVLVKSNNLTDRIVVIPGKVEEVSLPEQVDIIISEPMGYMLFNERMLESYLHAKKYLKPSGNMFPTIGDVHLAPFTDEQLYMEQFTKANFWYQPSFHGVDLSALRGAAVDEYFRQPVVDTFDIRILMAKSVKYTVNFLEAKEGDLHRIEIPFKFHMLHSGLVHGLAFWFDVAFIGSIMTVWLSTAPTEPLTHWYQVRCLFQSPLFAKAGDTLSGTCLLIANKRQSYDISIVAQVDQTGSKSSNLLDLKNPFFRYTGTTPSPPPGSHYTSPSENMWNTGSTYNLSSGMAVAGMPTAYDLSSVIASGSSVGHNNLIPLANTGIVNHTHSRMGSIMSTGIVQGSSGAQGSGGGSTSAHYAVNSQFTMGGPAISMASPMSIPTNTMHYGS
Description: Based on the structure of TPVC3, CARM1 degraders with stable and flexible alkyl linkages 2a-e were designed and synthesized. Degrader 2b bears the same linker length as TPVC3, while 2a has one less carbon. However, we also changed the hydrolytic labile C═N double bond, which is part of the acylhydrazone motif, in TPVC3 to a C—C bond in compound 2b. This change may influence the required optimal linker length. […] Western blot assays were performed to evaluate the CARM1 degradation activity of the compounds after treating MCF7 cells with these degraders at two concentrations (0.5 and 1.0 μM) for 24 h. […] It has one less carbon atom than 2a in terms of length. […] It has the same linker length as 2d.
The treatment dose and time were determined based on time-course and dose titration experiments (FIG. 4B-4C).
Western Blot Assay. Cells were harvested and washed with Dulbecco's phosphate-buffered saline (PBS), then lysed with 1×RIPA lysis buffer (50 mM Tris pH 7.5, 150 mM NaCl, 1% NP-40, 0.5% sodium deoxycholate, and 0.1% sodium dodecyl sulfate) supplemented with 1 mM phenylmethylsulfonyl fluoride, 10 μg/mL aprotinin, 1 μM leupeptin, and 10 μg/mL pepstatin on ice for 20 min. The supernatant was collected after spinning down at 15000 RPM at 4 degrees Celsius for 10 min. The concentration of whole lysates was quantified using a Bradford assay. 50-75 μg of cell lysates was boiled in 4× Laemmli Loading Dye and boiled at 100 degrees Celsius for 10 min. 25 μg were run in 8% SDS-PAGE gels and transferred to nitrocellulose membranes. Blots were blocked in 5% skim milk in PBST [PBS and 0.1% Tween 20] for 45 min, then incubated with primary antibodies at 4 degrees Celsius overnight. Blots were washed in PBST for 30 min, then incubated with horseradish peroxidase-linked secondary antibodies (Jackson ImmunoResearch) for 1 hr. Afterwards, blots were washed in PBST for 15-30 min, then treated with chemiluminescent ECL reagent and imaged with the ChemiDoc Imaging System (Bio-Rad) or Azure 600 (Azure Biosystems). Expression levels of the indicated proteins were probed by the following antibodies: anti-CARM1, anti-me-BAF155, anti-me-PABP1, anti-PABP1,^7 anti-BAF155 (D7F8S, Cell Signaling Technology), anti-PRMT1 (Bethyl), anti-PRMT6 (D-5, Santa Cruz Biotechnology), anti-β-Actin (ABclonal Technology, Sigma-Aldrich), anti-Hsp90 (H-114, Santa Cruz Biotechnology).

[2] = tested on: MCF7 cells; test: Global quantitative proteomic analysis of MCF7 cells by mass spectrometry; format: cell-based, Homo sapiens; conditions: 25 nM, 4 h, two-fold cutoff, p-value ≤0.05, 3491 proteins quantified
Description: Sample preparation for global proteomics analysis. Sample preparation is similar to the previous report (Ma et al. “Strategy Based on Deglycosylation, Multiprotease, and Hydrophilic Interaction Chromatography for Large-Scale Profiling of Protein Methylation” Anal. Chem. 2017, 89 (23), 12909-12917). Briefly, treated MCF7 cells were harvested by washing with PBS buffer (Gibco, pH 7.4) and lysed in RIPA buffer supplemented with protease inhibitors for 20 min, then protein concentration was determined using a BCA Protein Assay Kit (Thermo Pierce, Rockford, IL) per manufacturer instructions. […] The concentrations of the peptide mixture were measured by peptide assay (Thermo Fisher Scientific). […]
LC-MS/MS data acquisition. Samples were analyzed on an Orbitrap Fusion Lumos Tribrid mass spectrometer (Thermo Fisher Scientific) coupled to a Dionex UltiMate 3000 UPLC system. […]
Data analysis. Protein identification and quantification by MaxQuant (version 1.5.3.8) based database searching, using the integrated Andromeda search engine with FDR <1% at peptide and protein levels. […] For label-free protein quantification (LFQ), the MaxQuant LFQ algorithm was used to quantitate the MS signals, and the proteins' intensities were represented in LFQintesnit (Schaab et al. “Analysis of High Accuracy, Quantitative Proteomics Data in the MaxQB Database” Mol. Cell. Proteomics 2012, 11 (3), M111.014068). […]

[3] = tested on: BAF155 me2a; test: BAF155 me2a level in MDA-MB-231 cells, western blot; format: cell-based; conditions: 10 μM, after 48 h
Source text: (§1) FIGS. 7A-7F. […] Cell lysates were collected and CARM1, methyl-BAF155, total BAF155, methyl-PABP1, and total PABP1 levels were detected by Western blot. […] Cell lysates were collected and CARM1, methyl-BAF155, total BAF155 levels were detected by Western blot. […] Cell proliferation rate normalized to day 0 was plotted. […] Migrated cells were stained with 1% crystal violet and the percentage of migrated cells were plotted. Data mean±s.d. ***. P≤0.001.
(§2) Western Blot Assay. Cells were harvested and washed with Dulbecco's phosphate-buffered saline (PBS), then lysed with 1×RIPA lysis buffer (50 mM Tris pH 7.5, 150 mM NaCl, 1% NP-40, 0.5% sodium deoxycholate, and 0.1% sodium dodecyl sulfate) supplemented with 1 mM phenylmethylsulfonyl fluoride, 10 μg/mL aprotinin, 1 μM leupeptin, and 10 μg/mL pepstatin on ice for 20 min. The supernatant was collected after spinning down at 15000 RPM at 4 degrees Celsius for 10 min. The concentration of whole lysates was quantified using a Bradford assay. 50-75 μg of cell lysates was boiled in 4× Laemmli Loading Dye and boiled at 100 degrees Celsius for 10 min. 25 μg were run in 8% SDS-PAGE gels and transferred to nitrocellulose membranes. Blots were blocked in 5% skim milk in PBST [PBS and 0.1% Tween 20] for 45 min, then incubated with primary antibodies at 4 degrees Celsius overnight. […]

[4] = tested on: MDA-MB-231 cells; test: Transwell migration assay, MDA-MB-231 cells; format: cell-based; conditions: 10 μM, transwell, 20 h
Description: Transwell Migration Assay. Cells were harvested and washed in serum-free DMEM. The wells of a 24-well plate were filled with 800 μL of DMEM with 10% FBS. Transwell inserts with […] pore size were then added to the wells with DMEM. Cells were resuspended in serum-free DMEM, then 1×10^5 cells in 200 μL were added to the upper chambers. Drug treatments were added to the lower chambers, then incubated for 20 h at 37° C. The cells on the upper surface were removed with cotton swabs. Migratory cells were fixed in 3.7% formaldehyde at room temperature, followed by 100% methanol at −20° C. Fixed cells were stained with 1% crystal violet in 20% methanol for 30 min. The migration area was quantified from five independent fields of view of the lower surface of the membrane under a microscope.

[5] = tested on: BAF155 me2a; test: BAF155 me2a level in BT474 cells, western blot; format: cell-based; conditions: 10 μM, after 48 h
Source text: as §1, §2

| CARM1 degradation by negative control [1] | SMILES | Number of significantly changed proteins compared to the DMSO group [2] | BAF155 me2a level [3] | Cell migration [4] | BAF155 me2a level [5] |
| --- | --- | --- | --- | --- | --- |
| No CARM1 degradation was observed | COCCN1CCC(c2cc(CN(C)C(=O)c3cccc(Oc4ccc(OCC(=O)N5CCC(CN6CCC(CN7CCN(CC(=O)N[C@H](C(=O)N8C[C@H](O)C[C@H]8C(=O)N[C@@H](C)c8ccc(-c9scnc9C)cc8)C(C)(C)C)CC7)CC6)CC5)cc4)c3)ccn2)CC1 [Compound 3bN, (2S,4R)-4-hydroxy-1-((S)-2-(2-(4-((1-((1-(2-(4-(3-(((2-(1-(2-methoxyethyl)piperidin-4-yl)pyridin-4-yl)methyl)(methyl)carbamoyl)phenoxy)phenoxy)acetyl)piperidin-4-yl)methyl)piperidin-4-yl)methyl)piperazin-1-yl)acetamido)-3,3-dimethylbutanoyl)-N—((S)-1-(4-(4-methylthiazol-5-yl)phenyl)ethyl)pyrrolidine-2-carboxamide] | 45 | – | – | – |
| – | CNCCN1CCC(c2cc(CN(C)C(=O)c3cccc(Oc4ccccc4)c3)ccn2)CC1 [TP-064, reference compound] | – | decrease of BAF155 me2a level was observed | inhibited cell migration at a similar level | decrease of BAF155 me2a level was observed |
